Assay results: the supplement of paper PMC10307832

Experiments:
Assay in all cases: relative viability (nuclei count vs DMSO), 5 days (fraction); higher = more cells survive
[1] = compound: COc1cc2nc(N3CCCN(C)CC3)nc(NC3CCN(Cc4ccccc4)CC3)c2cc1OC + O=C(CCCCCCC(=O)Nc1ccccc1)NO [Vorinostat] (partner 1 µM)
How it was run: (§1)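 Medians of duplicate plates are given as relative viability. That measure is the nuclei count in treated wells divided by the count in vehicle wells. Counts were taken on 4× images of lung cancer cell lines in 1536-well plates, 5 days after pin-tool dosing the day after seeding with one drug alone or a fixed anchor-drug dose plus five library-drug doses (not always all listed) in √10 steps.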

AZD6482 + Decitabine = compound: Cc1cc([C@@H](C)Nc2ccccc2C(=O)O)c2nc(N3CCOCC3)cc(=O)n2c1 [AZD6482] + Nc1ncn([C@H]2C[C@H](O)[C@@H](CO)O2)c(=O)n1 [Decitabine] (partner 2 µM)
How it was run: as §1

AZD6482 + Vorinostat = compound: Cc1cc([C@@H](C)Nc2ccccc2C(=O)O)c2nc(N3CCOCC3)cc(=O)n2c1 [AZD6482] + O=C(CCCCCCC(=O)Nc1ccccc1)NO [Vorinostat] (partner 1 µM)
How it was run: as §1

AZD6482 + Dasatinib = compound: Cc1cc([C@@H](C)Nc2ccccc2C(=O)O)c2nc(N3CCOCC3)cc(=O)n2c1 [AZD6482] + Cc1nc(Nc2ncc(C(=O)Nc3c(C)cccc3Cl)s2)cc(N2CCN(CCO)CC2)n1 [Dasatinib] (partner 0.075 µM)
How it was run: as §1

Cell Line	relative viability ([1]; first compound 0.6325 µM)	relative viability ([1]; first compound 6.325 µM)	relative viability (AZD6482 + Decitabine; first compound 0.08 µM)	relative viability (AZD6482 + Decitabine; first compound 0.253 µM)	relative viability (AZD6482 + Decitabine; first compound 0.8 µM)	relative viability (AZD6482 + Decitabine; first compound 8 µM)	relative viability (AZD6482 + Vorinostat; first compound 0.08 µM)	relative viability (AZD6482 + Vorinostat; first compound 0.253 µM)	relative viability (AZD6482 + Vorinostat; first compound 0.8 µM)	relative viability (AZD6482 + Vorinostat; first compound 8 µM)	relative viability ([1]; first compound 0.2 µM)	relative viability ([1]; first compound 2 µM)	relative viability (AZD6482 + Dasatinib; first compound 0.08 µM)	relative viability (AZD6482 + Dasatinib; first compound 0.253 µM)	relative viability (AZD6482 + Dasatinib; first compound 0.8 µM)	relative viability (AZD6482 + Dasatinib; first compound 2.53 µM)	relative viability (AZD6482 + Dasatinib; first compound 8 µM)	relative viability (AZD6482 + Decitabine; first compound 2.53 µM)	relative viability (AZD6482 + Vorinostat; first compound 2.53 µM)
NCI-H1648	0.562	0.616	0.502	0.453	0.472	0.48	0.545	0.422	0.552	0.402									
SK-MES-1	1.04	0.472	0.331	0.279	0.396	0.275	0.842	1.05	1.02	0.684	1.02	1.22	0.179	0.235	0.169	0.125	0.168	0.28	0.594
HCC-366	0.33	0.284	0.309	0.302	0.313	0.345	0.269	0.26	0.457	0.203	0.332	0.254	0.659	0.564	0.733	0.271	0.482	0.304	0.269
201T	0.983	0.939	0.855	0.763	0.844	0.812	0.965	0.938	0.983	0.862	0.968	0.952	0.645	0.542	0.627	0.416	0.395	0.816	0.764
HCC-827	0.786	0.826	0.341	0.301	0.342	0.264	0.801	0.795	0.912	0.686	0.899	0.784	0.255	0.2	0.197	0.161	0.214	0.267	0.649
NCI-H647	0.669	0.24	0.374	0.406	0.302	0.361	0.63	0.55	0.473	0.619	0.588	0.614	0.133	0.152	0.153	0.0999	0.096	0.236	0.41
NCI-H2023	0.63	0.0993	0.226	0.185	0.214	0.179	0.642	0.435	0.509	0.455	0.565	0.509	0.454	0.494	0.566	0.3	0.423	0.269	0.37
NCI-H520	0.77	0.209	0.418	0.331	0.344	0.244	0.599	0.467	0.496	0.319	0.77	0.586	0.154	0.153	0.138	0.144	0.166	0.198	0.273
RERF-LC-KJ	0.704	0.589	0.722	0.78	0.601	0.665	0.648	0.616	0.557	0.514	0.61	0.703	0.586	0.77	0.762	0.706	0.682	0.592	0.648
A-427	0.827	0.851	0.479	0.53	0.547	0.483	0.806	0.843	0.87	0.826	0.865	0.882	0.717	0.615	0.715		0.754	0.512	0.706
NCI-H441	0.647	0.862	0.254	0.198	0.295	0.214	0.854	0.788	0.741	0.782	0.77	0.927	0.568	0.592	0.704		0.502		
NCI-H1792			0.519	0.479	0.549	0.476							0.769	0.703	0.862	0.569	0.515	0.356	
SK-LU-1	0.747	0.641		0.567	0.627	0.425		0.767	0.812	0.517	0.832	0.844		0.165	0.18	0.152	0.165	0.549	0.591
PC-3 [JPC-3]	0.926	0.707	0.775	0.827	0.773	0.751	0.766	0.797	0.84	0.571	0.625	0.781	0.887	0.959	0.898	0.769	0.791	0.714	0.457
EMC-BAC-2	0.427	0.508	0.938	0.956	0.994	0.908	0.534	0.413	0.526	0.316	0.431	0.448	0.253	0.327	0.275	0.257	0.271	0.778	0.341
LK-2	0.194	0.209	0.34	0.315	0.288	0.301	0.374	0.276	0.298	0.258	0.302	0.364	0.349	0.286	0.327	0.26	0.221	0.241	0.384
NCI-H2126	0.802	0.69	0.56	0.565	0.49	0.465	0.728	0.703	0.577	0.432	0.8	0.688	0.542	0.578	0.568	0.284	0.317	0.494	0.389

Cell Line	relative viability ([1]; first compound 0.6325 µM)	relative viability ([1]; first compound 6.325 µM)	relative viability (AZD6482 + Decitabine; first compound 0.08 µM)	relative viability (AZD6482 + Decitabine; first compound 0.253 µM)	relative viability (AZD6482 + Decitabine; first compound 0.8 µM)	relative viability (AZD6482 + Decitabine; first compound 8 µM)	relative viability (AZD6482 + Vorinostat; first compound 0.08 µM)	relative viability (AZD6482 + Vorinostat; first compound 0.253 µM)	relative viability (AZD6482 + Vorinostat; first compound 0.8 µM)	relative viability (AZD6482 + Vorinostat; first compound 8 µM)	relative viability ([1]; first compound 0.2 µM)	relative viability ([1]; first compound 2 µM)	relative viability (AZD6482 + Dasatinib; first compound 0.08 µM)	relative viability (AZD6482 + Dasatinib; first compound 0.253 µM)	relative viability (AZD6482 + Dasatinib; first compound 0.8 µM)	relative viability (AZD6482 + Dasatinib; first compound 2.53 µM)	relative viability (AZD6482 + Dasatinib; first compound 8 µM)	relative viability (AZD6482 + Decitabine; first compound 2.53 µM)	relative viability (AZD6482 + Vorinostat; first compound 2.53 µM)
NCI-H3122	1.04	0.937	0.474	0.393	0.389	0.298	1.01	1.1	0.829	0.796	1.04	0.921	0.775	0.828	0.94	0.361	0.695	0.277	0.84
NCI-H1975	0.677	0.654	0.351	0.392	0.385	0.345	0.638	0.655	0.743	0.482	0.397	0.797	0.312	0.327	0.389	0.289	0.235	0.354	0.535
NCI-H1944	0.597	0.517	0.446	0.37	0.521	0.435	0.544	0.498	0.609	0.469	0.58	0.512	0.223	0.191	0.238	0.172	0.182	0.446	0.43
LU99A	0.546	0.44	0.803	0.858	0.968	0.775	0.473	0.403	0.49	0.409	0.473	0.517	0.562	0.522	0.397	0.389	0.407	0.801	0.414
SW 1573	0.574	0.199	0.545	0.449	0.434	0.454	0.766	0.681	0.654	0.48	0.704	0.684	0.459	0.357	0.328	0.239	0.206	0.332	0.58
NCI-H2347	0.725	0.504	0.474	0.565	0.555	0.449	0.386	0.516	0.522	0.353	0.712	0.51	0.271	0.244	0.262	0.298	0.281	0.52	0.399
NCI-H2009	0.762	0.569	0.387	0.373	0.361	0.342	0.583	0.775	0.665	0.573	0.803	0.767	0.2	0.232	0.218	0.165	0.183	0.321	0.501
HCC-15	0.884	0.81	0.648	0.614	0.571	0.556	0.778	0.806	0.858	0.739	0.85	0.909	0.566	0.545	0.594	0.385	0.598	0.488	0.685
HCC-44	1.12	1.12	0.895	0.937	0.978	0.859	1.08	1.17	1.28	1.21	1.11	1.17						1	1.29
COR-L23	0.406	0.286	0.418	0.386	0.456	0.366	0.269	0.512	0.505	0.442	0.536	0.561	0.338	0.374	0.47	0.292	0.326	0.396	0.28
NCI-H2228	0.662	0.25					0.482	0.302	0.798	0.904	0.37	0.54		0.367	0.461	0.427	0.455		0.555
NCI-H1563													0.487	0.479	0.442	0.449	0.465		
A549			0.27	0.12	0.209	0.347													
NCI-H1623													0.521	0.524	0.457	0.426	0.395		
IA-LM	0.876	0.975					0.858	0.906	1.03	0.854	0.983	0.908							
CAL-12T	0.626	0.767					0.715	0.666	0.737	0.556	0.558	0.925	0.403	0.393	0.332	0.21	0.171		0.548
